The test system of assay [1] is epidermis of albino hairless mice (Skh-1). The assay can be described thus: Thickness of the epidermis after 10 weeks of topical treatment. The format is in vivo, mouse.
Assay [2] concerns UV-photodamaged dorsal trunk skin of albino hairless mice (Skh-1). The assay can be described thus: Dermal repair zone depth in UV-photodamaged hairless mouse skin after topical treatment. The format is in vivo. An excerpt: In one method, a deficit in connective tissue synthesis is induced by long-term exposure of mouse skin to ultraviolet (UV) radiation. […] The repair can be visualized as a region of new connective tissue which forms as a subepidermal band in the papillary dermis after topical retinoid treatment (Kligman LH, Chapter 10: Animal Models of Photodamage and Its Treatment, pp. 136-156, In: Photodamage, edited by B. A. Gilchrest, 1995, Blackwell Science, Cambridge, Mass.). The old malformed elastotic tissue, produced during UV exposure, is compressed by the retinoid-induced new connective tissue zone.
Connective tissue photodamage was induced in albino hairless mice (Skh-1) (six to eight weeks old) by exposure of dorsal trunk skin to UV from FS40 fluorescent tubes, three days per week (Monday, Wednesday, Friday) for ten weeks. The UV dose started with one minimal erythemal dose (MED) and was increased gradually to 4.5 MEDs by week 5 and then continued at 4.5 MEDs for five more weeks. At the beginning of week 11, mice were treated topically with 0.1 mL test material on the dorsal trunk skin, three times per week (Monday, Wednesday, Friday) for 6 to 10 weeks. At the end of treatment, dorsal skin was excised and placed in 10% buffered formalin. The specimens were embedded, sectioned and stained with Luna's aldehyde fuchsin for elastic fibers. The dermal repair zone, defined as the area from the epidermal-dermal junction to the top of the compressed elastotic material, was quantified by measuring the depth of the zones with an image analyzer. […]

Assay [3] deals with skin of albino hairless mice (Skh-1). The assay can be described thus: Estrogen-induced thickening of the skin (double skin-fold thickness). The note with it: Example 4, 3 days of topical treatment. The format is in vivo, mouse. The method, then: In the second method, topical estrogens increase the thickness of the entire skin by enhancing its water content. This is due to estrogen-stimulated increases in hyaluronic acid, which is a biomolecule that has an avid water binding capacity (Grosman et al. Acta Pharmacol. Toxicol., 1971, Vol. 30, pp. 458-464). Estrogen-induced thickening of the skin was assessed in albino hairless mice (Skh-1). The skin is topically treated for 3 days with 0.1 mL test material. The next day after the last dose, double skin-fold thickness is measured with an engineer's vernier calipers. This example compares the effects of 17-α-Estradiol and 17-β-Estradiol on skin thickening after 3 days of topical treatment.

For assay [4], the system named is markers of reproductive function. The note with it: humans; administered subcutaneously; cited from earlier work.
The mark [5] stands for this setting: Example 2, topical dose 0.1%, 10 Weeks.
Where [6] appears, read: Example 3, topical dose 0.01%, 10 weeks.

The structures appear in SMILES notation.

Take `CC1=C(/C=C/C(C)=C/C=C/C(C)=C/C(=O)O)C(C)(C)CCC1` [All-trans-retinoic acid]: the “Epidermal Thickness (μm) ± SE” value in assay [1] (Example 5, topical dose 0.03%) came out at 52.8 ± 3.6 μm. For the same molecule, the “Repair Zone Depth (μm) ± SE” value in assay [2] (Example 1, topical dose 0.03%, 10 weeks, 0.1 mL three times per week) is reported as 72.0 ± 2.6 μm; in assay [2] (Example 2, topical dose 0.03%, 6 Weeks), 44.5 ± 3.9 μm; in assay [2] (Example 2, topical dose 0.03%, 10 Weeks), 59.0 ± 2.3 μm; in assay [2] (Example 3, topical dose 0.03%, 10 weeks), 72.0 ± 3.3 μm.
Regarding `C[C@]12CC[C@@H]3c4ccc(O)cc4CC[C@H]3[C@@H]1CC[C@@H]2O` [17-β-estradiol], the figures for the Skin-Fold Thickness (mm) ± SE in assay [3] (topical dose 0.001%), in assay [3] (topical dose 0.01%) and in assay [3] (topical dose 0.1%) were 1.25 ± 0.08 mm, 1.62 ± 0.11 mm and 1.5 ± 0.13 mm, respectively. Further, the “Epidermal Thickness (μm) ± SE” value in assay [1] (Example 5, topical dose 0.005%) is given as 32.0 ± 1.2 μm; in assay [1] (Example 5, topical dose 0.01%) it was 28.3 ± 1.8 μm; in assay [1] (Example 5, topical dose 0.1%) it was 48.1 ± 2.9 μm. The “Repair Zone Depth (μm) ± SE” value in assay [2] (Example 1, topical dose 0.01%, 10 weeks, 0.1 mL three times per week) is 57.4 ± 6.1 μm; in assay [2] (Example 2, topical dose 0.1%, 6 Weeks) it was 46.3 ± 0.9 μm; in assay [2] (setting [5]), 38.7 ± 2.5 μm; in assay [2] (Example 3, topical dose 0.005%, 10 weeks), 45.2 ± 3.1 μm; in assay [2] (setting [6]), 53.4 ± 2.1 μm; in assay [2] (Example 3, topical dose 0.1%, 10 weeks), 68.2 ± 6.0 μm.
Take `C[C@]12CCC3c4ccc(O)cc4CCC3C1CC[C@H]2O` (stereo partly drawn) [17-α-estradiol]: the Skin-Fold Thickness (mm) ± SE in assay [3] (topical dose 0.01%) turned out to be 1.16 ± 0.07 mm; in assay [3] (topical dose 0.1%), 1.43 ± 0.06 mm; in assay [3] (topical dose 0.5%) it was 1.52 ± 0.14 mm. The “Epidermal Thickness (μm) ± SE” value worked out at 29.3 ± 0.3 μm in assay [1] (Example 5, topical dose 0.05%); 37.3 ± 1.8 μm in assay [1] (Example 5, topical dose 0.1%); 42.9 ± 3.8 μm in assay [1] (Example 5, topical dose 0.5%). Also, the “biological activity on markers of reproductive function” value in assay [4] was “lacked biological activity”. Besides, the “Repair Zone Depth (μm) ± SE” value in assay [2] (Example 1, topical dose 0.50%, 10 weeks, 0.1 mL three times per week) was 71.8 ± 3.0 μm; in assay [2] (Example 2, topical dose 0.05%, 10 Weeks), 36.8 ± 2.4 μm; in assay [2] (setting [5]) it was 44.3 ± 2.3 μm; in assay [2] (Example 2, topical dose 0.5%, 6 Weeks) it was 44.6 ± 2.7 μm; in assay [2] (Example 2, topical dose 0.5%, 10 Weeks) it was 51.6 ± 3.5 μm; in assay [2] (setting [6]) it was 49.4 ± 3.7 μm. The “Repair Zone Depth (μm) ± SE” value in assay [2] (Example 3, topical dose 0.05%, 10 weeks) turned out to be 34.3 ± 3.7 μm; in assay [2] (Example 3, topical dose 0.5%, 10 weeks), 62.4 ± 4.2 μm.

These data come from patent US20010051167A1, “USE OF 17-ALPHA-ESTRADIOL FOR THE TREATMENT OF AGED OR SUNDAMAGED SKIN AND/OR SKIN ATROPHY” (priority 1997, published 2001).
